Several values for one entry are separate records, joined by “and”; a condition that tells them apart may be missing. Identical values can stand only once.
How the values were obtained:
[1] = Release experiments with 5(6)-carboxyfluorescein-loaded large unilamellar vesicles (LUVET100), spontaneous and vortex-triggered; type: physicochemical; details: for Release at RT after 60 s vortex / Release 37° C. after 60 s vortex: mechanically induced release, 60 s vortexing; for Release at RT after 60 s vortex / Release at RT after 7 days: 22° C. (RT); for Release at RT after 7 days: spontaneous release of 5(6)-carboxyfluorescein; for release at 37° C. without vortexing: without vortexing/shaking
Source text: FIG. 8 Release experiments using 5(6)-carboxyfluorescein-loaded large unilamellar vesicles comprising 1,3-diheptadecanamidopropan-2-yl (2-(trimethylammonio) ethyl) phosphate (4) obtained via extrusion through a 100 nm track-edged filter membrane (LUVET100). Triggered release was induced by shaking the samples for a specific amount of time on a vortex-shaker.
Previously the inventors reported the 5(6)-carboxyfluorescein release from vesicles containing 1,3-palmitoylamido-1,3-deoxy-sn-glycero-2-phosphatidylcholine (2) (Holme et al., Nat. Nanotechnol. 2012, 7, 536-543). […] Increasing the Tm promises improved release properties. […] This leads to a lower leakage of the vesicles at 22° C. (room temperature) as well as 37° C. (average human body temperature) (FIG. 8). A prolongation if the acyl chain to the artificial C18 phospholipid 1,3-stearoylamido-1,3-deoxy-sn-glycero-2-phosphatidylcholine leads to an increased Tm of 52° C., but this phospholipid forms almost no liposomes anymore.
Each sample was treated with Triton X-100 to induce a full release of 5(6)-carboxy fluorescein.
Large unilamellar vesicles with a diameter of 100 nm (LUVET100) of the 1,3-diheptadecanamidopropan-2-yl (2-(trimethylammonio) ethyl) phosphate (4) were prepared following the extrusion protocol: in a 25 ml round bottom flask, 10 mg of the lipid was dissolved in CH2Cl2. After evaporation of the organic solvent, the film was further dried under high vacuum (40 mbar) overnight. Then the film was hydrated with the internal buffer for 30 min (1 ml, 50 mM 5(6)-carboxyfluorescein, 10 mM HEPES buffer (AppliChem), 10 mM NaCl dissolved in pure water, pH 7.4). Now at least 5 freeze-thaw cycles (liquid N2 to 65° C.) were carried out before the suspension was extruded 11 times using a Mini Extruder (Avanti Polar Lipids, USA) using track-edged filters with a mesh size of 100 nm (Whatman, USA). The external buffer was then exchanged on a size exclusion column (1.5×20 cm Sephadex G-50 column) in external buffer (107 mM NaCl dissolved in ultrapure water, 10 mM HEPES, pH 7.4).

[2] = Differential scanning calorimetry, main phase transition of vesicle membranes; type: physicochemical; details: for Tm: main phase transition temperature of liposome membrane
Source text: Interdigitation of membrane leaflets also influences the membranes main-phase transition temperature. […] Also, the value for the bilayer main-phase transition temperature is 11.5 K higher than the calculated critical temperature from the monolayer experiments, where no interdigitation is possible.

[3] = Dynamic light scattering of liposome formulations before and after SANS heating cycles; type: physicochemical; details: for PDI, After heating / Size (hydrodynamic), After heating: after the SANS experiments (n = 3); for Size (hydrodynamic), After heating: heating to 42° C. and back, eight months after; for PDI, Before heating / Size (hydrodynamic), Before heating: before the SANS experiments (n = 5); for Size (hydrodynamic), Before heating: room temperature, D2O
Protocol: A library of artificial phospholipids was synthesised. Table 5 summarises the characterisation of the liposomal formulations concerning hydrodynamic size and polydispersity, before and after the temperature-dependent SANS measurements. The size of the DPPC and Pad-PC-Pad liposomes was (120±2) nm with a polydispersity index between 0.01 and 0.20. […] Pad-Pad-PC and Sur-PC-Sur liposomes were 400 to 1,500 nm in size with a polydispersity index of 0.57.
DLS measurements were carried out on a DelsaMax PRO (Beckman Coulter, USA) at room temperature and at a lipid concentration of 0.3 mg/mL in D2O. The data were averaged among five independent measurements before heating cycles and three measurements eight months after applying heating cycles. Data were treated with the cumulant analysis method.

[4] = reported previously; cited from earlier work
[5] = LUVs, heating and cooling rates of 0.5° C./min

Structure (SMILES)	Release at 37° C. after 2 h [1]	Release at RT after 60 s vortex [1]	Release 37° C. after 60 s vortex [1]	Release at RT after 7 days [1]	change in enthalpy at main phase transition [2, 5]	main phase transition temperature [2, 5]	Tm [2]	DLS most probable / dominant or smaller population size [3]	PDI, After heating [3]	Size (hydrodynamic), After heating [3]	PDI, Before heating [3]	Size (hydrodynamic), Before heating ([3]; listed as Rad-PC-Rad (5))	Tm, main phase transition temperature [4]	Size (hydrodynamic), Before heating [3]	Size (hydrodynamic), Before heating ([3]; listed as DPPC (1))	PDI, Before heating ([3]; listed as DPPC (1))	release at 37° C. without vortexing [1]	release at 37° C. without vortexing ([1]; listed as 1,3-palmitoylamido-1,3-deoxy-sn-glycero-2-phosphatidylcholine)	Size (hydrodynamic), Before heating ([3]; listed as Pad-PC-Pad (4))	PDI, Before heating ([3]; listed as Pad-PC-Pad (4))
CCCCCCCCCCCCCCCCC(=O)NCC(CNC(=O)CCCCCCCCCCCCCCCC)OP(=O)([O-])OCC[N+](C)(C)C [Rad-PC-Rad, 1,3-diheptadecanamidopropan-2-yl (2-(trimethylammonio)ethyl) phosphate]	6%	24% and 23.8%	34%	9% and 9.4%	5.774 kcal/mol	44.7 °C	45 °C	about 150 nm	0.32 ± 0.03	700 ± 100 nm	0.57 ± 0.01	150 ± 3 nm	45 °C							
CCCCCCCCCCCCCCCC(=O)OC[C@H](COP(=O)([O-])OCC[N+](C)(C)C)OC(=O)CCCCCCCCCCCCCCC [DPPC, 1,2-dipalmitoyl-sn-glycero-3-phosphocholine]	12.2%	1.1%	17.9%	4.5%			41 °C		0.33 ± 0.02	600 ± 40 nm			41 °C	120±2 nm	120 ± 2 nm	0.01 ± 0.01				
CCCCCCCCCCCCCCCC(=O)NCC(CNC(=O)CCCCCCCCCCCCCCC)OP(=O)([O-])OCC[N+](C)(C)C [Pad-PC-Pad, 1,3-palmitoylamido-1,3-deoxy-sn-glycero-2-phosphatidylcholine]	100%	43.4%	100%	15.5%			37 °C		0.33 ± 0.04	53 ± 4 nm			37 °C	120±2 nm			100%	immediate full release	126 ± 4 nm	0.19 ± 0.04

— patent US11904051B2, “Shear stress sensitive liposomes” (Universität Basel, priority 2018, dated 2024)
